Target: T1, full-length human PKCι (Homo sapiens, UniProt P41743)
T1 construct: Recombinant, full-length human PKCι expressed in Sf21 insect cells is also commercially available; purchased EMD Millipore; host or cells: Sf21 insect cells (baculovirus)
T1 sequence (P41743 1-596): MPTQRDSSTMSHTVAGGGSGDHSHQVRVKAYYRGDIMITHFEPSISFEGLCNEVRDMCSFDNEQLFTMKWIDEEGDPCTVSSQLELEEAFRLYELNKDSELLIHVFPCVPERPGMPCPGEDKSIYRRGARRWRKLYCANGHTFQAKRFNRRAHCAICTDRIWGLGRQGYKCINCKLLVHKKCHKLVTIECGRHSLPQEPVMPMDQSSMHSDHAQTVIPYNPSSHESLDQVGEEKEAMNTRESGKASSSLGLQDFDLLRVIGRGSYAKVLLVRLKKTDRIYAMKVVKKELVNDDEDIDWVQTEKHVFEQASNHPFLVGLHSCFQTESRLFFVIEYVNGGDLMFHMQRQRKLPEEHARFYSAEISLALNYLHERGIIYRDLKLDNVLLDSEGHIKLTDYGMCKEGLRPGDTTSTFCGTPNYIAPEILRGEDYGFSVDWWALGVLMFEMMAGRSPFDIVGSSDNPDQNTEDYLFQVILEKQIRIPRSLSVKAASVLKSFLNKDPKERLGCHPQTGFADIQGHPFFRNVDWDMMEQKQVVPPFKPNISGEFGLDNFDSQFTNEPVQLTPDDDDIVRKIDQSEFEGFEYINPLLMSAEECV
Experiment: PKCι IC50 IMAP fluorescence polarisation assay, full-length enzyme, 150 μM ATP
Assay type: biochemical
Conditions: read-out: IC50 in IMAP assay against full length PKCi at 150 μM ATP
How it was run: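 IMAP fluorescence polarisation kinase assay: 15 pM baculovirus-expressed human PKCiota with 100 nM FAM-pseudosubstrate peptide and 150 μM ATP, 1 h at 25 °C. IMAP detection reagent then 2 h at 25 °C before FP measurement. Inhibition referenced to no-compound and no-enzyme controls for IC50 fitting.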

SMILES	IC50
OC[C@@H]1CNCCN1c1nc(-c2ccnc3[nH]c(C(F)(F)F)cc23)nc2cncc(C3CCC3)c12 [Example 5, {(S)-1-[5-Cyclobutyl-2-(2-trifluoromethyl-1H-pyrrolo[2,3-b]pyridin-4-yl)-pyrido[3,4-d]pyrimidin-4-yl]-piperazin-2-yl}-methanol]	1000 to 10000 nM
OC[C@H]1CNCCN1c1nc(-c2ccnc3[nH]c(C(F)(F)F)cc23)nc2cncc(C3CC3)c12 [Example 6, {(R)-1-[5-Cyclopropyl-2-(2-trifluoromethyl-1H-pyrrolo[2,3-b]pyridin-4-yl)-pyrido[3,4-d]pyrimidin-4-yl]-piperazin-2-yl}-methanol]	100 to 1000 nM
OC[C@H]1CNCCN1c1nc(-c2ccnc3[nH]c(C(F)(F)F)cc23)nc2cncc(C3CCC3)c12 [Example 7, {(R)-1-[5-Cyclobutyl-2-(2-trifluoromethyl-1H-pyrrolo[2,3-b]pyridin-4-yl)-pyrido[3,4-d]pyrimidin-4-yl]-piperazin-2-yl}-methanol]	100 to 1000 nM
c1ccc2c(c1)[nH]c1nccc(-c3nc(N4CC[C@@H]5CNC[C@@H]54)c4c(C5CCC5)cncc4n3)c12 [Example 9, 4-((R)-5-Cyclobutyl-4-(R)-hexahydro-pyrrolo[3,4-b]pyrrol-1-yl-pyrido[3,4-d]pyrimidin-2-yl)-9H-pyrido[2,3-b]indole]	< 100 nM
c1ccc2c(c1)[nH]c1nccc(-c3nc(N4CC[C@H]5CNC[C@H]54)c4c(C5CCC5)cncc4n3)c12 [Example 10, 4-((S)-5-Cyclobutyl-4 (S)-hexahydro-pyrrolo[3,4-b]pyrrol-1-yl-pyrido[3,4-d]pyrimidin-2-yl)-9H-pyrido[2,3-b]indole]	< 100 nM
N[C@H]1C[C@H](Nc2nc(-c3ccnc4[nH]c5ccccc5c34)nc3cncc(C4CCC4)c23)C1 [Example 11, trans-N-[5-Cyclobutyl-2-(9H-pyrido[2,3-b]indol-4-yl)-pyrido[3,4-d]pyrimidin-4-yl]-cyclobutane-1,3-diamine]	< 100 nM
CC1(c2cc3c(-c4nc(N[C@H]5CC[C@H](N)CC5)c5c(C6CC6)cncc5n4)ccnc3[nH]2)CC1(F)F (stereo partly drawn) [Example 12, trans-N-{5-Cyclopropyl-2-[2-(2,2 difluoro-1-methyl-cyclopropyl)-1H-pyrrolo[2,3-b]pyridin-4-yl]-pyrido[3,4-d]pyrimidin-4-yl}-cyclohexane-1,4-diamine]	< 100 nM
OC1(c2cc3c(-c4nc(N5CCNCC5)c5c(C6CCC6)cncc5n4)ccnc3[nH]2)CCSC1 (stereo not drawn) [Example 13, 3-[4-(5-Cyclobutyl-4-piperazin-1-yl-pyrido[3,4-d]pyrimidin-2-yl)-1H-pyrrolo[2,3-b]pyridin-2-yl]-tetrahydro-thiophen-3-ol]	< 100 nM
c1ccc(Sc2cc3c(-c4nc(N5CCNCC5)c5c(C6CC6)cncc5n4)ccnc3[nH]2)cc1 [Example 14, 5-Cyclopropyl-2-(2-phenylsulfanyl-1H-pyrrolo[2,3-b]pyridin-4-yl)-4-piperdzin-1-yl-pyrido[3,4-d] pyrimidine]	< 100 nM
COc1ccccc1-c1cc2c(-c3nc(N(C)C4CCNCC4(C)C)c4c(C5CC5)cncc4n3)ccnc2[nH]1 (stereo not drawn) [Example 23, {5-Cyclopropyl-2-[2-(2-methoxy-phenyl)-1H-pyrrolo[2,3-b]pyridin-4-yl]-pyrido[3,4-d]pyrimidin-4-yl}-(3,3-dimethyl-piperidin-4-yl)-methyl-amine]	< 100 nM
CN(c1nc(-c2ccnc3[nH]c(-c4ccc(Cl)cc4Cl)cc23)nc2cncc(C3CC3)c12)C1CCNCC1(C)C (stereo not drawn) [Example 24, {5-Cyclopropyl-2-[2-(2,4-dichloro-phenyl)-1H-pyrrolo[2,3-b]pyridin-4-yl]-pyrido[3,4-d]pyrimidin-4-yl}-(3,3-dimethyl-piperidin-4-yl)-methyl-amine]	< 100 nM
CN(c1nc(-c2ccnc3[nH]c(Sc4ccccc4)cc23)nc2cncc(C3CCC3)c12)C1CCNCC1 [Example 28, [5-Cyclobutyl-2-(2-phenylsulfanyl-1H-pyrrolo[2,3-b]pyridin-4-yl)-pyrido[3,4-d]pyrimidin-4-yl]-methyl-piperidin-4-yl-amine]	< 100 nM
CN(c1nc(-c2ccnc3[nH]c(Sc4ccccc4)cc23)nc2cncc(C3CC3)c12)C1CCNCC1(C)C (stereo not drawn) [Example 29, [5-Cyclopropyl-2-(2-phenylsulfanyl-1H-pyrrolo[2,3-b]pyridin-4-yl)-pyrido[3,4-d]pyrimidin-4-yl]-(3,3-dimethyl-piperidin-4-yl)-methyl-amine]	< 100 nM
CN(c1nc(-c2ccnc3[nH]c4ccccc4c23)nc2cncc(C3CCC3)c12)C1CCNCC1(C)C (stereo not drawn) [Example 31, [5-Cyclobutyl-2-(9H-pyrido[2,3-b]indol-4-yl)-pyrido[3,4-d]pyrimidin-4-yl]-(3,3-dimethyl-piperidin-4-yl)-methyl-amine]	< 100 nM

Results, then the molecule that gave them:

IC50	SMILES
< 100 nM	CN(c1nc(-c2ccnc3[nH]c(Sc4ccccc4)cc23)nc2cncc(C3CC3)c12)C1CCNCC1 [Example 15, [5-Cyclopropyl-2-(2-phenylsulfanyl-1H-pyrrolo[2,3-b]pyridin-4-yl)-pyrido[3,4-d]pyrimidin-4-yl]-methyl-piperidin-4-yl amine]
< 100 nM	CSc1cc2c(-c3nc(N4CCNCC4)c4c(C5CC5)cncc4n3)ccnc2[nH]1 [Example 16, 5-Cyclopropyl-2-(2-methylsulfanyl-1H-pyrrolo[2,3-b]pyridin-4-yl)-4-piperazin-1-yl pyrido[3,4-d]pyrimidine]
< 100 nM	CSc1cc2c(-c3nc(N4CCNCC4)c4c(C5CCC5)cncc4n3)ccnc2[nH]1 [Example 17, 5-Cyclobutyl-2-(2-methylsulfanyl-1H-pyrrolo[2,3-b]pyridin-4-yl)-4-piperazin-1-yl pyrido[3,4-d] pyrimidine]
< 100 nM	Clc1ccc(-c2cc3c(-c4nc(N5CCNCC5)c5c(C6CC6)cncc5n4)ccnc3[nH]2)c(Cl)c1 [Example 18, 5-Cyclopropyl-2-[2-(2,4-dichloro-phenyl)-1H-pyrrolo[2,3-b]pyridin-4-yl]-4-piperazin-1-yl-pyrido[3,4-d] pyrimidine]
< 100 nM	FC(F)(F)c1cc2c(-c3nc(N4CC[C@H]5CNC[C@H]54)c4c(C5CC5)cncc4n3)ccnc2[nH]1 [Example 20, 5-Cyclopropyl-4-(3aS,6aS)-hexahydro-pyrrolo[3,4-b]pyrrol-1-yl-2-(2-trifluoromethyl-1H-pyrrolo[2,3-b]pyridin-4-yl)-pyrido[3,4-d]pyrimidine]
< 100 nM	FC(F)(F)c1cc2c(-c3nc(N4CC[C@@H]5CNC[C@@H]54)c4c(C5CC5)cncc4n3)ccnc2[nH]1 [Example 21, 5-Cyclopropyl-4-(3aR,6aR)-hexahydro-pyrrolo[3,4-b]pyrrol-1-yl-2-(2-trifluoromethyl-1H-pyrrolo[2,3-b]pyridin-4-yl)-pyrido[3,4-d]pyrimidine]
< 100 nM	c1ccc2c(c1)[nH]c1nccc(-c3nc(NC4CCCNCC4)c4c(C5CCC5)cncc4n3)c12 (stereo not drawn) [Example 22, Azepan-4-yl-[5-cyclobutyl-2-(9H-pyrido[2,3-b]indol-4-yl)-pyrido[3,4-d]pyrimidin-4-yl]-amine]
100 to 1000 nM	Clc1ccccc1-c1cc2c(-c3nc(N[C@H]4[C@@H]5CC[C@H]4CNC5)c4c(C5CC5)cncc4n3)ccnc2[nH]1 [Example 25, (1R,5S,8R)-3-Aza-bicyclo[3.2.1]oct-8-yl-{2-[2-(2-chloro-phenyl)-1H-pyrrolo[2,3-b]pyridin-4-yl]-5-cyclopropyl-pyrido[3,4-d]pyrimidin-4-yl}-amine]
100 to 1000 nM	Clc1ccccc1-c1cc2c(-c3nc(N[C@@H]4[C@@H]5CC[C@H]4CNC5)c4c(C5CC5)cncc4n3)ccnc2[nH]1 [Example 26, (1R,5S,8S)-3-Aza-bicyclo[3.2.1]oct-8-yl-{2-[2-(2-chloro-phenyl)-1H-pyrrolo[2,3-b]pyridin-4-yl]-5-cyclopropyl-pyrido[3,4-d]pyrimidin-4-yl}-amine]
10000 to 40000 nM	COc1nc(-c2ccnc3[nH]c4ccccc4c23)nc2cncc(C3CCC3)c12 [Example 30, 4-(5-Cyclobutyl-4-methoxy-pyrido[3,4-d]pyrimidin-2-yl)-9H-pyrido[2,3-b]indole]
< 100 nM	CN(c1nc(-c2ccnc3[nH]c(-c4csc(C(C)(C)C)n4)cc23)nc2cncc(C3CC3)c12)C1CCNCC1(C)C (stereo not drawn) [Example 32, {2-[2-(2-tert-Butyl-thiazol-4-yl)-1H-pyrrolo[2,3-b]pyridin-4-yl]-5-cyclopropyl-pyrido[3,4-d]pyrimidin-4-yl}-(3,3-dimethyl-piperidin-4-yl)-methyl-amine]
< 100 nM	c1ccc2c(c1)[nH]c1nccc(-c3nc(N[C@H]4[C@@H]5CNC[C@@H]54)c4c(C5CCC5)cncc4n3)c12 [Example 33, (2R,6S)-3-Aza-bicyclo[3.1.0]hex-6-yl-[(S)-5-cyclobutyl-2-(9H-pyrido[2,3-b]indol-4-yl)-pyrido[3,4-d]pyrimidin-4-yl]-amine]
< 100 nM	CC1(C)CNCCC1Nc1nc(-c2ccnc(Nc3cc4ccccn4n3)c2)nc2cncc(C3CC3)c12 (stereo not drawn) [Example 35, {5-Cyclopropyl-2-[2-(pyrazolo[1,5-a]pyridin-2-ylamino)-pyridin-4-yl]-pyrido[3,4-d]pyrimidin-4-yl}-(3,3-dimethyl-piperidin-4-yl)-amine]

— patent publication US10414763B2 (CANCER RESEARCH TECHNOLOGY LIMITED, priority 2014, dated 2019)
